Results taken from ChEMBL document CHEMBL1123714, “Potential antitumor agents. 48. 3'-Dimethylamino derivatives of amsacrine: redox chemistry and in vivo solid tumor activity” (J Med Chem, 1987).

Assay: physchem
Details: 20% DMF

SMILES: CN(C)c1cc(NS(C)(=O)=O)ccc1Nc1c2ccccc2nc2ccccc12
- pKa: 7.25

SMILES: CNc1cc(NS(C)(=O)=O)ccc1Nc1c2ccccc2nc2ccccc12
- pKa: 7.47
